Test results: BigSolDB 2.1

O=C(O)c1ccc(-c2ccc(C(=O)O)o2)o1
solubility (mole fraction)
Settings	in DMAc	in DMSO	in acetic acid	in acetonitrile	in isopropanol	in methanol	in n-pentanol	in water
298.15 K	0.0166	0.00768	8.11e-06	1.73e-06	0.0001	0.000331	0.000146	9.64e-07
303.15 K	0.0208	0.00984	1.13e-05	2.2e-06	0.000106	0.000393	0.000154	1.31e-06
313.15 K	0.0283	0.017	2.35e-05	3.47e-06	0.000154	0.000464	–	1.97e-06
323.15 K	0.0499	0.0282	3.38e-05	5.31e-06	0.000223	0.000574	0.000148	2.55e-06
333.15 K	0.0555	0.0412	6.79e-05	7.91e-06	0.000284	0.000702	0.000214	3.75e-06
343.15 K	0.0807	0.0728	0.000112	1.15e-05	0.000592	0.00109	0.000412	4.84e-06
353.15 K	–	–	0.000214	1.58e-05	0.00116	–	0.000757	7.43e-06
363.15 K	–	–	–	2.12e-05	0.0014	–	0.00144	9.09e-06
